Laboratory results as given in ChEMBL document CHEMBL1201862, “PubChem BioAssay data set” (2004).
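Method: 48-hour compound exposure of cells in 96-well plates, five concentrations, linear interpolation of endpoints. The concentration for 50% growth inhibition is given as GI50.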 The source made the active and inactive calls. Rule as the data show it: active = GI50 up to about 1.1 µM and inactive = higher.

Tests used:
Experiment in all cases: NCI tumour cell line growth inhibition, 48 h
[1] = tested on: SW-620
[2] = tested on: KM-20L2
[3] = tested on: LXFL 529
[4] = tested on: SK-OV-3
[5] = tested on: SNB-75
[6] = tested on: UO-31
[7] = tested on: NCI-H226
[8] = tested on: HCT-15
[9] = tested on: MOLT-4
[10] = tested on: ACHN
[11] = tested on: SK-MEL-2
[12] = tested on: OVCAR-4
[13] = tested on: SF-268
[14] = tested on: U-251
[15] = tested on: RXF 393
[16] = tested on: HCC 2998
[17] = tested on: SNB-78
[18] = tested on: SF-539
[19] = tested on: HT-29
[20] = tested on: CAKI-1
[21] = tested on: SR
[22] = tested on: SF-295
[23] = tested on: HCT-116
[24] = tested on: TK-10
[25] = tested on: DMS-114
[26] = tested on: IGROV-1
[27] = tested on: RPMI-8226
[28] = tested on: A549
[29] = tested on: OVCAR-8
[30] = tested on: OVCAR-5
[31] = tested on: SK-MEL-28
[32] = tested on: 786-0
[33] = tested on: OVCAR-3
[34] = tested on: HOP-92
[35] = tested on: EKVX
[36] = tested on: NCI-H522
[37] = tested on: SNB-19
[38] = tested on: Malme-3M
[39] = tested on: SN12C
[40] = tested on: COLO 205
[41] = tested on: UACC-62
[42] = tested on: DMS-273
[43] = tested on: SK-MEL-5
[44] = tested on: K562
[45] = tested on: M19-MEL
[46] = tested on: UACC-257
[47] = tested on: NCI-H23
[48] = tested on: KM12
[49] = tested on: HOP-18
[50] = tested on: CCRF-CEM
[51] = tested on: LOX IMVI
[52] = tested on: HL-60
[53] = tested on: NCI-H460
[54] = tested on: DLD-1
[55] = tested on: M14

O=c1[nH]c(-c2ccccc2)nc2cc([N+](=O)[O-])c(/C(Cl)=C/c3ccccc3)cc12
GI50 [1]: 23.6 µM (inactive)
GI50 [2]: 33.7 µM (inactive)
GI50 [3]: 16.4 µM (inactive)
GI50 [4]: 27.3 µM (inactive)
GI50 [5]: 22.3 µM (inactive)
GI50 [6]: 99.5 µM (inactive)
GI50 [7]: > 100 µM (inactive)
GI50 [8]: 7.82 µM
GI50 [9]: 50.8 µM (inactive)
GI50 [10]: 68.2 µM (inactive)
GI50 [11]: 21.9 µM (inactive)
GI50 [12]: 18.3 µM (inactive)
GI50 [13]: 29.2 µM (inactive)
GI50 [14]: 28.6 µM (inactive)
GI50 [15]: 14.4 µM (inactive)
GI50 [16]: > 100 µM (inactive)
GI50 [17]: 35 µM (inactive)
GI50 [18]: 25.2 µM (inactive)
GI50 [19]: > 10 µM (inactive)
GI50 [20]: 15.1 µM (inactive)
GI50 [21]: 31.1 µM (inactive)
GI50 [22]: 20.7 µM (inactive)
GI50 [23]: 21 µM (inactive)
GI50 [24]: 27.7 µM (inactive)
GI50 [25]: 35.7 µM (inactive)
GI50 [26]: 55 µM (inactive)
GI50 [27]: 16.1 µM (inactive)
GI50 [28]: 23.2 µM (inactive)
GI50 [29]: 19.7 µM (inactive)
GI50 [30]: > 100 µM (inactive)
GI50 [31]: 26.2 µM (inactive)
GI50 [32]: 35 µM (inactive)
GI50 [33]: 30 µM (inactive)
GI50 [34]: 11.8 µM (inactive)
GI50 [35]: 46.5 µM (inactive)
GI50 [36]: 17.3 µM (inactive)
GI50 [37]: 41 µM (inactive)
GI50 [38]: 24.3 µM (inactive)
GI50 [39]: 36.6 µM (inactive)
GI50 [40]: 21.5 µM (inactive)
GI50 [41]: 15.1 µM (inactive)
GI50 [42]: 29.1 µM (inactive)
GI50 [43]: 16.1 µM (inactive)
GI50 [44]: 7.5 µM (inactive)
GI50 [45]: 37.8 µM (inactive)
GI50 [46]: 16.1 µM (inactive)
GI50 [47]: 43.3 µM (inactive)
GI50 [48]: 26.2 µM (inactive)

[N-]=[N+]=NC(c1cn(C2CC(O)C(CO)O2)c(=O)[nH]c1=O)C(Cl)Br (configuration not stated)
GI50 [1]: > 100 µM (inactive)
GI50 [2]: > 100 µM (inactive)
GI50 [3]: > 100 µM (inactive)
GI50 [5]: > 100 µM (inactive)
GI50 [49]: 47.2 µM (inactive)
GI50 [6]: > 100 µM (inactive)
GI50 [7]: > 100 µM (inactive)
GI50 [8]: > 100 µM
GI50 [9]: > 100 µM (inactive)
GI50 [10]: > 100 µM (inactive)
GI50 [11]: > 100 µM (inactive)
GI50 [14]: > 100 µM (inactive)
GI50 [15]: > 100 µM (inactive)
GI50 [16]: > 100 µM (inactive)
GI50 [17]: > 100 µM (inactive)
GI50 [18]: > 100 µM (inactive)
GI50 [19]: > 100 µM (inactive)
GI50 [20]: > 100 µM (inactive)
GI50 [21]: > 100 µM (inactive)
GI50 [22]: > 100 µM (inactive)
GI50 [23]: > 100 µM (inactive)
GI50 [24]: > 100 µM (inactive)
GI50 [25]: > 100 µM (inactive)
GI50 [27]: > 100 µM (inactive)
GI50 [28]: > 100 µM (inactive)
GI50 [29]: > 100 µM (inactive)
GI50 [31]: > 100 µM (inactive)
GI50 [32]: > 100 µM (inactive)
GI50 [50]: 50.8 µM (inactive)
GI50 [51]: > 100 µM (inactive)
GI50 [52]: > 100 µM (inactive)
GI50 [34]: > 100 µM (inactive)
GI50 [35]: > 100 µM (inactive)
GI50 [36]: > 100 µM (inactive)
GI50 [37]: > 100 µM (inactive)
GI50 [38]: > 100 µM (inactive)
GI50 [53]: > 100 µM (inactive)
GI50 [39]: > 100 µM (inactive)
GI50 [40]: > 100 µM (inactive)
GI50 [42]: > 100 µM (inactive)
GI50 [54]: > 100 µM (inactive)
GI50 [43]: > 100 µM (inactive)
GI50 [44]: > 100 µM (inactive)
GI50 [45]: > 100 µM (inactive)
GI50 [47]: > 100 µM (inactive)
GI50 [48]: > 100 µM (inactive)

CC1=C[P+](Cc2ccccc2)(c2ccccc2)CC1 (configuration not stated)
GI50 [2]: 94.2 µM (inactive)
GI50 [3]: 23.3 µM (inactive)
GI50 [4]: > 100 µM (inactive)
GI50 [5]: > 100 µM (inactive)
GI50 [8]: 88.1 µM
GI50 [9]: > 100 µM (inactive)
GI50 [10]: > 100 µM (inactive)
GI50 [15]: > 100 µM (inactive)
GI50 [55]: 77.6 µM (inactive)
GI50 [19]: 77.3 µM (inactive)
GI50 [21]: 57 µM (inactive)
GI50 [24]: 98.9 µM (inactive)
GI50 [25]: 35.2 µM (inactive)
GI50 [26]: 96.8 µM (inactive)
GI50 [27]: 28.6 µM (inactive)
GI50 [28]: > 100 µM (inactive)
GI50 [29]: > 100 µM (inactive)
GI50 [30]: > 100 µM (inactive)
GI50 [31]: 81.1 µM (inactive)
GI50 [32]: > 100 µM (inactive)
GI50 [51]: > 100 µM (inactive)
GI50 [33]: 47.8 µM (inactive)
GI50 [52]: 36.3 µM (inactive)
GI50 [36]: 65.2 µM (inactive)
GI50 [53]: > 100 µM (inactive)
GI50 [39]: > 100 µM (inactive)
GI50 [40]: 41.5 µM (inactive)
GI50 [41]: 66.5 µM (inactive)
GI50 [42]: > 100 µM (inactive)
GI50 [43]: 27 µM (inactive)
GI50 [45]: 29.9 µM (inactive)
GI50 [46]: 21.5 µM (inactive)
GI50 [47]: > 100 µM (inactive)
